Results: patent US8765920B2, “Tyrosine bioconjugation through aqueous Ene-like reactions” (priority 2009, dated 2014)

Assay: Stability study of modified p-cresol under thermal conditions
Type: physicochemical
Conditions: 120° C. for 1 h
Description: Compound 4, the product of the reaction of p-cresol and PTAD, was subjected to both strongly acidic and basic conditions for 24 hours at room temperature or high temperature (120° C.) for 1 hr. […] These conditions are extremely harsh for a peptide or protein.
The relative stability of the C—N bond formed in the products was studied using p-cresol as a model phenol. As shown in Scheme 11, p-cresol was reacted with PTAD in tetrahydrofuran in the presence of sodium hydride to provide adduct in 75% isolated yield. Compound 8f was subjected to both strong acidic and basic conditions for 24 hours at room temperature or high temperature (120° C.) for 1 h.
Compound 4 (4.00 mg, 0.0141 mmol) was heated at 120° C. for 1 h according to the literature. The recovery of 4 was 4.00 mg (quant.).
Compound 23 (4.00 mg, 0.0141 mmol) was heated at 120° C. for 1 h according to literature. The recovery of 23 was 4.00 mg (quant.).

## Cc1ccc(O)c(-n2[nH]c(=O)n(-c3ccccc3)c2=O)c1 [Compound 4, 1-(2-hydroxy-5-methylphenyl)-4-phenyl-1,2,4-triazolidine-3,5-dione]
  decomposition by 1H NMR after heating: wasn't detected
